According to PMC6222509, “Dibasic Derivatives of Phenylcarbamic Acid against Mycobacterial Strains: Old Drugs and New Tricks?” (Molecules : A Journal of Synthetic Chemistry and Natural …, 2018):
In brackets after ≈: the same amount, converted by molar mass. Where two headings read alike, the source gives them in different places.

Columns and labels:
[1] = tested on: Mycobacterium tuberculosis CNCTC My 331/88 (identical with H37Rv and ATCC 2794; MTv H37Rv); assay: in vitro antimycobacterial MIC, dilution micromethod in Šula's semisynthetic medium; type: cell-based; conditions: Mycobacterium tuberculosis
[2] = tested on: M. avium CNCTC My 330/80 (identical with ATCC 25291; MA 330/80); assay: as above; type: cell-based, Mycobacterium avium; conditions: Mycobacterium avium
[3] = tested on: M. kansasii DSM 44162 (MK DSM); assay: in vitro antimycobacterial MIC, broth dilution micromethod in Middlebrook 7H9; type: cell-based; conditions: Mycobacterium kansasii, DSM 44162 / DSM 7, 168 h; 7-day cultivation, 37 °C; read-out: MIC MK DSM 7-d
[4] = tested on: M. smegmatis ATCC 700084 (MS); assay: as above; type: cell-based, Mycobacterium smegmatis; conditions: Mycolicibacterium smegmatis, ATCC700084, 72 h; 3-day cultivation, 37 °C; read-out: MIC MS 3-d
[5] = tested on: M. marinum CAMP 5644 (MM); assay: as above; type: cell-based, Mycobacterium marinum; conditions: Mycobacterium marinum, 504 h; 21-day cultivation, 28 °C; read-out: MIC MM 21-d
[6] = tested on: M. kansasii CNCTC My 235/80 (identical with ATCC 12478; MK 235/80); assay: in vitro antimycobacterial MIC, dilution micromethod in Šula's semisynthetic medium; type: cell-based, Mycobacterium kansasii; conditions: Mycobacterium kansasii
rabbit cornea = tested on: rabbit cornea; set-up: method as in PMID 8402965; conditions: 0.01 M cocaine as standard; cited from earlier work
guinea pig = tested on: guinea pig; set-up: method as in PMID 8402965; conditions: intradermal, 0.02 M procaine as standard; cited from earlier work
white mice = conditions: subcutaneous application; cited from earlier work
[7] = tested on: M. tuberculosis H37Ra ATCC 25177 (MTa H37Ra); assay: in vitro antimycobacterial MIC, 96-well Middlebrook broth, alamarBlue; type: cell-based, Mycobacterium tuberculosis; conditions: Mycobacterium tuberculosis, 168 h, 7-day cultivation; read-out: MIC MTa H37Ra 7-d
Procedure: In vitro susceptibitity of given mycobacteria to reference drugs isoniazid (INH), ethambutol (EMB), ofloxacin (OFLX) or ciprofloxacin (CPX) was tested as well (Table 6 and Table 7).
A value of a minimum inhibitory concentration (MIC) was the lowest concentration of a tested compound, (i) which inhibited growth of MTv H37Rv, MK 235/80, MK 6509/96 and MA 330/80, respectively; (ii) at which no visible growth of MTa H37Ra, MS, MK DSM as well as MM was observed.
The molecules 1a–p were also in vitro screened against an avirulent M. tuberculosis H37Ra ATCC 25177 (MTa H37Ra), M. kansasii DSM 44162 (MK DSM), M. smegmatis ATCC 700084 (MS) and M. marinum CAMP 5644 (MM), respectively, in the Department of Infectious Diseases and Microbiology (Faculty of Veterinary Medicine, University of Veterinary and Pharmaceutical Sciences in Brno, Czech Republic).
Determination of a minimum inhibitory concentration (MIC) against MTa H37Ra. The mycobacterium was grown on Middlebrook broth (MB; MiddleBrook Pharmaceuticals, Inc., Westlake, TX, USA), supplemented with Oleic-Albumin-Dextrose-Catalase (OADC) supplement (Difco, Lawrence, KS, USA) and salicylate-derived mycobactin J (2 μg/mL; Allied Monitor Inc., Fayette, MO, USA), an iron-binding siderophore.
At log phase growth, a culture sample (10 mL) was centrifuged at 15,000 rpm/20 min using a bench top centrifuge MPW-65R (MPW Med Instruments, Warsaw, Poland). Following removal of the supernatant, a pellet was washed in fresh liquid Middlebrook 7H9GC broth (MiddleBrook Pharmaceuticals, Inc.) and re-suspended in a fresh OADC-supplemented MB (10 mL).
Turbidity was adjusted to match the McFarland standard No. 1 [87] containing approximately 3 × 10^8 Colony Forming Units (CFU) with MB broth. Further 1:20 dilution of the culture was performed in MB broth.
Susceptibility of MTa H37Ra was investigated in a 96-well plate format. In the experiments, sterile deionized water (300 µL) was added to all outer-perimeter wells of the plates to minimize evaporation of the medium in test wells during incubation. Each evaluated compound (100 µL) was incubated with MTa H37Ra (100 µL). Dilutions of each compound were prepared in triplicate and final concentrations varied from 1000 μg/mL to 8 μg/mL. All tested molecules were dissolved in DMSO (Sigma-Aldrich, Irvine, UK), and subsequent dilutions were made in supplemented MB broth. The plates were sealed with parafilm and incubated at 37 °C for 7 days.
Following incubation, 10% addition a water-soluble dye, the alamarBlue reagent (AbD Serotec, Kidlington, UK) was mixed into each well. This resaurin-based reagent served as an oxidation-reduction indicator of metabolic function and cellular health in cell viability bioassays.
Absorbance readings at 570 nm and 600 nm were taken, initially for background subtraction and after 24h re-incubation. The subtraction is necessary for strongly colored compounds, where the color may interfere with the interpretation of any color change. For non-interfering compounds, a blue color in a well was interpreted as absence of growth and pink color was scored as growth.
The minimum inhibitory concentration (MIC) was defined as the lowest concentration of a compound, at which no visible bacterial growth was observed. In other words, the MIC was the lowest concentration that prevented visual color change from blue to pink.

[8] = 336 h, 14-day cultivation, read-out: MIC MTv H37Rv 14-d
[9] = 504 h, 21-day cultivation, read-out: MIC MTv H37Rv 21-d
[10] = ATCC25291, 336 h, 14-day cultivation, read-out: MIC MA 330/80 14-d
[11] = ATCC25291, 504 h, 21-day cultivation, read-out: MIC MA 330/80 21-d
[12] = ATCC12478, 168 h, 7-day cultivation, read-out: MIC MK 235/80 7-d
[13] = ATCC12478, 336 h, 14-day cultivation, read-out: MIC MK 235/80 14-d
[14] = ATCC12478, 504 h, 21-day cultivation, read-out: MIC MK 235/80 21-d

| SMILES | MIC [1, 8] [µM] | MIC [1, 9] [µM] | MIC [2, 10] [µM] | MIC [2, 11] [µM] | MIC [4] [µM] | MIC [5] [µM] | MIC [6, 12] [µM] | MIC [6, 13] [µM] | MIC [6, 14] [µM] | Us, index of relative surface local anesthetic efficiency (rabbit cornea) | Ui, index of relative infiltration local anesthetic efficiency (guinea pig) | LD50 (white mice) [mg/kg] | further results |
| --- | --- | --- | --- | --- | --- | --- | --- | --- | --- | --- | --- | --- | --- |
| CC[C@@H](CO)NCCN[C@@H](CC)CO [EMB, ethambutol, reference compound] | 1 (≈ 0.204 µg/mL) | 2 (≈ 0.409 µg/mL) | 16 (≈ 3.27 µg/mL) | 16 (≈ 3.27 µg/mL) | – | – | – | – | – | – | – | – | MIC ([2]; ATCC25291, cultivation time not given, read-out: MIC MA 330/80): 16 µM (≈ 3.27 µg/mL) |
| O=C(O)c1cn(C2CC2)c2cc(N3CCNCC3)c(F)cc2c1=O [CPX, ciprofloxacin, reference compound] | – | – | – | – | 0.4 (≈ 0.133 µg/mL) | 0.8 (≈ 0.265 µg/mL) | – | – | – | – | – | – | MIC [3]: 3 µM (≈ 0.994 µg/mL) |
| CC1COc2c(N3CCN(C)CC3)c(F)cc3c(=O)c(C(=O)O)cn1c23 (stereo not shown) [OFLX, ofloxacin, reference compound] | 1 (≈ 0.361 µg/mL) | 2 (≈ 0.723 µg/mL) | 32 (≈ 11.6 µg/mL) | 62.5 (≈ 22.6 µg/mL) | – | – | 0.5 (≈ 0.181 µg/mL) | 1 (≈ 0.361 µg/mL) | 1 (≈ 0.361 µg/mL) | – | – | – | – |
| CCN(CC)CCOC(=O)c1ccc(N)cc1 [procaine] | – | – | – | – | – | – | – | – | – | 0.1 | 1.0 | 600 | – |
| NNC(=O)c1ccncc1 [INH, isoniazid, reference compound] | 0.5 (≈ 0.0686 µg/mL) | 1 (≈ 0.137 µg/mL) | > 250 | > 250 | 117 (≈ 16 µg/mL) | 467 (≈ 64 µg/mL) | > 250 | > 250 | > 250 | – | – | – | MIC [7]: 36.5 µM (≈ 5.01 µg/mL) |
| COC(=O)[C@H]1[C@@H](OC(=O)c2ccccc2)C[C@@H]2CC[C@H]1N2C [cocaine] | – | – | – | – | – | – | – | – | – | 1.0 | 3.6 | 125 | – |
